Results: ChEMBL document CHEMBL1909046, “DrugMatrix in vitro pharmacology data”

What was measured:
Cytochrome P450 2C9 = Cytochrome P450 2C9 (Homo sapiens, UniProt P11712); details: bti-tn-5b1-4
Cytochrome P450 2E1 = Cytochrome P450 2E1 (Homo sapiens, UniProt P05181); details: bti-tn-5b1-4
Cytochrome P450 3A4 = Cytochrome P450 3A4 (Homo sapiens, UniProt P08684); details: bti-tn-5b1-4
Cytochrome P450 2C19 = Cytochrome P450 2C19 (Homo sapiens, UniProt P33261); details: bti-tn-5b1-4
Cytochrome P450 2D6 = Cytochrome P450 2D6 (Homo sapiens, UniProt P10635); details: bti-tn-5b1-4
Cytochrome P450 2D6, sequence (P10635 whole entry): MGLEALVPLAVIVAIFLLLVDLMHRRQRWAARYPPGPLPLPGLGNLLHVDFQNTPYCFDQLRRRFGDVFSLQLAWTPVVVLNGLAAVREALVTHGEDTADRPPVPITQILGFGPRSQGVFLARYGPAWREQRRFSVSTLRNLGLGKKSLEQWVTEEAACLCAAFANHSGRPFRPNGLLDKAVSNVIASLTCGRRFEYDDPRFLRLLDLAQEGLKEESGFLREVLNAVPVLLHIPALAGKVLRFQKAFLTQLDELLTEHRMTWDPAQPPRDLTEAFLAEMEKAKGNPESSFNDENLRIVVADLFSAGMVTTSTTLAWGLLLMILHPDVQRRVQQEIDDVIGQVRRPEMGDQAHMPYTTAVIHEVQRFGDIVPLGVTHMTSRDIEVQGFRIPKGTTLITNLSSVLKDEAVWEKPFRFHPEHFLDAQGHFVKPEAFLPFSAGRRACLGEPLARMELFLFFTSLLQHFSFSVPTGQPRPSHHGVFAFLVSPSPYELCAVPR

Cytochrome P450 2A6 = target: T1, Cytochrome P450 2A6 (Homo sapiens, UniProt P11509); details: bti-tn-5b1-4
T1 sequence (P11509 whole entry): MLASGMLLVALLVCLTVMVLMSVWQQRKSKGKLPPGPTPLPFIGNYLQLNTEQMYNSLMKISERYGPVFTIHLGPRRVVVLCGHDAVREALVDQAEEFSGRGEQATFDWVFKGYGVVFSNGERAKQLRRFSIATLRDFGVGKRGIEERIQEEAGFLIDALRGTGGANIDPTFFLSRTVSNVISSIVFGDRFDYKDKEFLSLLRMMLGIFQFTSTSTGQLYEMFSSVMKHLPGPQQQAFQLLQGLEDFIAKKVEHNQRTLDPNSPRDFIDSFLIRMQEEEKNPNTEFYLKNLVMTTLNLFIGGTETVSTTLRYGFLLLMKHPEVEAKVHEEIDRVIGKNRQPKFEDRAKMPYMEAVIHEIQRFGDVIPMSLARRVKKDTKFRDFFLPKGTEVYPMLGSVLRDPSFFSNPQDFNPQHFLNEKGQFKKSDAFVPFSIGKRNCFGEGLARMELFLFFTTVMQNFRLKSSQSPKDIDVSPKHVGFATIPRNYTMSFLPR

[1] = target: Voltage-gated inwardly rectifying potassium channel KCNH2 (Homo sapiens, UniProt Q12809); details: hek293
Voltage-gated inwardly rectifying potassium channel KCNH2, sequence (Q12809 whole entry): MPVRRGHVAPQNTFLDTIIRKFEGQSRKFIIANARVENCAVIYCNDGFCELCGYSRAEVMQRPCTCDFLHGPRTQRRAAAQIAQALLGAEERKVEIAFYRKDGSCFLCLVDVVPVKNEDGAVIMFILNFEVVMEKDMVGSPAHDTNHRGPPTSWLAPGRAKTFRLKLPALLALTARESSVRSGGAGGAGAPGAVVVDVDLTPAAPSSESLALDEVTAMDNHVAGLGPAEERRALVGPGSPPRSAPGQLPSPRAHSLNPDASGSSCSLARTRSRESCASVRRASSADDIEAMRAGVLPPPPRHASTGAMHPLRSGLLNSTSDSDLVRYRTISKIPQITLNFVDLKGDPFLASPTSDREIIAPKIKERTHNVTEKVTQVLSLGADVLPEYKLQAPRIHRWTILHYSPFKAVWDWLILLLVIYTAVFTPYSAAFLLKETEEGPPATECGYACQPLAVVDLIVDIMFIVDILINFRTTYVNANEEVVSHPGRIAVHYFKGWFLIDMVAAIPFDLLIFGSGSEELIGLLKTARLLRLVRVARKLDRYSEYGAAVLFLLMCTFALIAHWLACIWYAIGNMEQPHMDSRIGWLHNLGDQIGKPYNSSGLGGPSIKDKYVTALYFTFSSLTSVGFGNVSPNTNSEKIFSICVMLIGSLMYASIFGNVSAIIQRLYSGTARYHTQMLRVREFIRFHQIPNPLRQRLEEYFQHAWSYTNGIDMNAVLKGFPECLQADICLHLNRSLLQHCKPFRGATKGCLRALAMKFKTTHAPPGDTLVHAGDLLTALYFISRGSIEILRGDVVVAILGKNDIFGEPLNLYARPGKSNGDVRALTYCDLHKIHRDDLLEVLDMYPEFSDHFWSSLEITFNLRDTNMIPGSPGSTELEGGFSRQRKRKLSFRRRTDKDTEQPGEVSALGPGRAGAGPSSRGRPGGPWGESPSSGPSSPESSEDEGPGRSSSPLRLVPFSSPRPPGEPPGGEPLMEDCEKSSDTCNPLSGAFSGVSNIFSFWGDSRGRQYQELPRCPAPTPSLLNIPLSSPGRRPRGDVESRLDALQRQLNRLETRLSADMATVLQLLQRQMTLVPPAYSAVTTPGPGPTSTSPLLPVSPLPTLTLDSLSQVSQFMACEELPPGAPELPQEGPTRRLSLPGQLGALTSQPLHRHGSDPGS

Cytochrome P450 1A2 = target: T2, Cytochrome P450 1A2 (Homo sapiens, UniProt P05177); details: bti-tn-5b1-4
T2 sequence (P05177 whole entry): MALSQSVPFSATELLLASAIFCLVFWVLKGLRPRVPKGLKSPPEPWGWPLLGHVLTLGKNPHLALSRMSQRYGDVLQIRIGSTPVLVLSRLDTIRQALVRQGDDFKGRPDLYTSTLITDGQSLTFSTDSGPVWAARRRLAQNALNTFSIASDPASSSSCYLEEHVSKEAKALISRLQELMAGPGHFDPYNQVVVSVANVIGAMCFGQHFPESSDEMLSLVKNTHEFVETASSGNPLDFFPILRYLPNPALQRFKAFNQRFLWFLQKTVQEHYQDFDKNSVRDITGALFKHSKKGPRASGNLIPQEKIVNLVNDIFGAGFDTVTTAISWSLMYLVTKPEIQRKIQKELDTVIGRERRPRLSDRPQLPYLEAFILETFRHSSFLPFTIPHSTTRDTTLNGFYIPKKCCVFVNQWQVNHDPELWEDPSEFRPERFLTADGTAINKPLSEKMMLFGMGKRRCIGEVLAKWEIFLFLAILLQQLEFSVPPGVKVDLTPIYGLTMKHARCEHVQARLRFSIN
Note: in other assays of this panel Not Active means under 50% inhibition at 10 µM.

Cytochrome P450 2C9, sequence (P11712 whole entry): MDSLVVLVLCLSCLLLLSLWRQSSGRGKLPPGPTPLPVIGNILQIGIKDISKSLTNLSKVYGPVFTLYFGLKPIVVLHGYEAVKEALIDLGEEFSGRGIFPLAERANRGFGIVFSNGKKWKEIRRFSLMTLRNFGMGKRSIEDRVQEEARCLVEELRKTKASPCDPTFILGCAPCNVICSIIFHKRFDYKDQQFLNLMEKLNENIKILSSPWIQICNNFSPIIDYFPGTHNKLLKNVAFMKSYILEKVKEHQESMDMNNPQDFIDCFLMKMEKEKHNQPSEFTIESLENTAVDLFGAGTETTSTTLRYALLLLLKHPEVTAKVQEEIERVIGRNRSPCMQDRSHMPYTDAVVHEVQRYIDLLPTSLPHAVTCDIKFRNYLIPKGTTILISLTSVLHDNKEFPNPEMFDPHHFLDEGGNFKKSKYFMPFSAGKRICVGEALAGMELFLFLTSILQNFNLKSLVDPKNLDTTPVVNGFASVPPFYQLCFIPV
Cytochrome P450 2E1, sequence (P05181 whole entry): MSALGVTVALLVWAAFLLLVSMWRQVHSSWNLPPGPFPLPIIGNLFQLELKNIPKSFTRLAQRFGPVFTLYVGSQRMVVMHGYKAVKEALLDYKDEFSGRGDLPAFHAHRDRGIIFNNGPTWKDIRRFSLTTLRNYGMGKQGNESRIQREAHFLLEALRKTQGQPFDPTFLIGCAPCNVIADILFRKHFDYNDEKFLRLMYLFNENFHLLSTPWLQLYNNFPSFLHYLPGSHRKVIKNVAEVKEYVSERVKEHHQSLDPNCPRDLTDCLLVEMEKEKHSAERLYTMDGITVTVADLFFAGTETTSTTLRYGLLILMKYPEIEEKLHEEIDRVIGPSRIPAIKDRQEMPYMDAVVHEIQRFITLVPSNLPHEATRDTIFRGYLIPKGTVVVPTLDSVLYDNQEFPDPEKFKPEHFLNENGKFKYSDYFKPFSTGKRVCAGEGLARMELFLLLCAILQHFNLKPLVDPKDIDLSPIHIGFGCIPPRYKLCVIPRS
Cytochrome P450 3A4, sequence (P08684 whole entry): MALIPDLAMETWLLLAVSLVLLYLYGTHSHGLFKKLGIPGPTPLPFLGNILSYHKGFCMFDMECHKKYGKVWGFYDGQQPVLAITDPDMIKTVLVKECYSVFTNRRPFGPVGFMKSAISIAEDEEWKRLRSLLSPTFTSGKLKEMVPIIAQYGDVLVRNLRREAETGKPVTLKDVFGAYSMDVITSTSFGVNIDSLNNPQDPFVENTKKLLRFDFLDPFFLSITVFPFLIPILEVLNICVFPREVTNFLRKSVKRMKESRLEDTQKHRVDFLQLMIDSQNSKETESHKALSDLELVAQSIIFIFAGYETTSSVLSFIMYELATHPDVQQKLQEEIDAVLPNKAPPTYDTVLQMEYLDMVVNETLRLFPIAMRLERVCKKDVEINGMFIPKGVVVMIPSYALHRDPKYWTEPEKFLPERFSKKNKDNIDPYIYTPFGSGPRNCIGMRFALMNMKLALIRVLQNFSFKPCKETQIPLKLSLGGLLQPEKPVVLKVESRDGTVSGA
Cytochrome P450 2C19, sequence (P33261 whole entry): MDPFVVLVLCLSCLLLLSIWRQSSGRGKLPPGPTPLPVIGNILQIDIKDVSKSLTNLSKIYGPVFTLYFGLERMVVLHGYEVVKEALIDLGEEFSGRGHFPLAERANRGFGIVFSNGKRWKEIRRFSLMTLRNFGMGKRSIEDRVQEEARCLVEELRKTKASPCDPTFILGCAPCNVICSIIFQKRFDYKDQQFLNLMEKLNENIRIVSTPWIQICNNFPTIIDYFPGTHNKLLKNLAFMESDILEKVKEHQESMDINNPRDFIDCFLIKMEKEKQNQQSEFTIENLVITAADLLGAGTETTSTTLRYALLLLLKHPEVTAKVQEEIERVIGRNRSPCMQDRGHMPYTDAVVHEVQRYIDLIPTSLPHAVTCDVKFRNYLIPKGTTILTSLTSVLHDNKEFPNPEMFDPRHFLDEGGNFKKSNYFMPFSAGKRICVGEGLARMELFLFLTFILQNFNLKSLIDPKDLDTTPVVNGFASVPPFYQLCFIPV

CC=Cc1ccc(O)c(OC)c1 [ISOEUGENOL]
Not Active: IC50 (Cytochrome P450 2C9) | Ki (Cytochrome P450 2C9) | IC50 (Cytochrome P450 2E1) | Ki (Cytochrome P450 2E1) | IC50 (Cytochrome P450 3A4) | Ki (Cytochrome P450 3A4) | IC50 (Cytochrome P450 2C19) | Ki (Cytochrome P450 2C19) | IC50 (Cytochrome P450 2D6) | Ki (Cytochrome P450 2D6) | IC50 (Cytochrome P450 2A6) | Ki (Cytochrome P450 2A6) | IC50 [1] | Ki [1] | IC50 (Cytochrome P450 1A2) | Ki (Cytochrome P450 1A2)
